Data on six molecules can be found in paper PMC5794198, “Inhibitors of Trypanosoma cruzi Sir2 related protein 1 as potential drugs against Chagas disease” (PLoS Neglected Tropical Diseases, 2018).

“Also recorded” adds a separate entry of the source.

Series [1] has as its target TcSir2rp1 (Trypanosoma cruzi, UniProt Q4DVL9). The experiment in a line: TcSir2rp1 NAD+-dependent deacetylase fluorimetric assay (CycLex kit). The format is biochemical. The conditions noted are these: for Inhibition of NAD+-dependent deacetylase activity of TcSir2rp1 / inhibition at 10 µM: single dose 10 μM, 200 μM NAD+, 10 μM peptide. On the procedure: The deacetylase activity was measured using the commercial SIRT1/Sir2 Deacetylase Fluorometric Assay Kit (CycLex,Japan) according to the manufacturer’s recommendations. Briefly, fluorescence emission after digestion of deacetylated substrates by a lysine specific endopeptidase was measured in a fluorometric plate reader (Synergy HT, BioTek) with excitation and emission wavelengths set at 340 and 440 nm, respectively, every 30 seconds for 1 hour. The slope of the linear part of the reaction was calculated and used as readout of enzyme activity. […]
A variety of the bisnaphthalimidopropyl (BNIPs) derivatives, as well as the newly synthetized derivatives were evaluated as potential TcSir2rp1 inhibitors. The enzymatic reactions were performed using a commercially available CycLex SIRT1/Sir2 deacetylase fluorimetric kit (CycLex Co. Ltd., Nagano, Japan) in the absence and presence of the various inhibitors, 200 μM NAD^+ and 10 μM of peptide substrate as previously described.
A variety of the bisnaphthalimidopropyl (BNIPs) derivatives, as well as the newly synthetized derivatives were evaluated as potential TcSir2rp1 inhibitors. The enzymatic reactions were performed using a commercially available CycLex SIRT1/Sir2 deacetylase fluorimetric kit (CycLex Co. Ltd., Nagano, Japan) in the absence and presence of the various inhibitors, 200 µM NAD^+ and 10 µM of peptide substrate as previously described.

In series [2] the test system is T. cruzi epimastigotes, wild-type (WT). The series is described as follows: T. cruzi epimastigote resazurin viability assay, wild-type. In kind it is cell-based, Trypanosoma cruzi. The conditions noted are these: CL-Brener, 64 h + 6 h resazurin; means ± SD (n = 4). Here is the method:
T. cruzi epimastigotes were seeded at 1.25 x 10^6 cells/mL in a 96-well plate in the presence of varying concentrations of test compounds. Following a 64-hour incubation, 15 μL of a resazurin solution (Sigma-Aldrich; 1.1 mg/mL in PBS). […] Each assay was performed in at least triplicate in parallel to the known trypanocidal agent nifurtimox.

For series [3], the system named is T. cruzi epimastigotes overexpressing TcSir2rp1 (OE) with the pTcINDEX. The series is described as follows: microbe, parasite or virus in culture. The format is cell-based. The conditions noted are these: Trypanosoma cruzi, read-out: EC50 against T. cruzi epimastigotes OE. On the procedure: For the generation of transgenic cell lines, 15 μg of the constructs were digested overnight (SpeI for the pTcINDEX construct; NotI for the knockout constructs), precipitated with sodium acetate / ethanol, and introduced into 1.5 x 10^7 epimastigote cells in the logarithmic phase of growth via transfection using an AMAXA Nucleofector II device (program V-33) with the Human T-cell nucleofector kit (Lonza). Parasites were suspended in fresh growth medium and incubated for 24-hrs to allow for the expression of drug selectable markers, prior to the addition of appropriate antibiotic (Blasticidin S (Thermo Fisher Scientific; 10 μg/mL); Hygromycin B (Formedium; 100 μg/mL); and Puromycin (Calbiochem; 5 μg/mL). Cells were then incubated for a further four- to six-weeks to allow for the selection of transgenic parasites and then genetically verified by PCR using ORF and drug selection primers.
The TcSir2rp1 open reading frame (TriTryp accession number TcCLB.508207.150) was amplified from CL-Brener genomic DNA using KOD polymerase (Novagen). The resulting PCR product encoding the full-length ORF was cloned directly into the T. cruzi expression vector, pTcINDEX [49], using NotI and BamHI restriction sites.
T. cruzi epimastigotes were seeded at 1.25 x 10^6 cells/mL in a 96-well plate in the presence of varying concentrations of test compounds. Following a 64-hour incubation, 15 μL of a resazurin solution (Sigma-Aldrich; 1.1 mg/mL in PBS). Following an additional 6-hr incubation, cell viability was determined by measuring the fluorescence of each culture with a BioTek FLX800 Fluorescence Microplate Reader (excitation and emission wavelengths of 540/535 nm and 590/610 nm, respectively) and associated Gen5 Reader Control 2.0 software. EC50 values were determined by nonlinear regression to a sigmoidal dose-response curve using GraFit software (Version 5.0, Erithacus Software). Each assay was performed in at least triplicate in parallel to the known trypanocidal agent nifurtimox.

Series [4] has as its system C2C12 cells. The experiment in a line: C2C12 host cell cytotoxicity (cell ratio) in HCS assay. The format is cell-based, Mouse. Particulars: for Selectivity Index: CC50 cell line (C2C12)/EC50 T. cruzi. On the procedure:
(§1) For the evaluation of the activity against T. cruzi amastigotes, high-content screening (HCS) was designed. In summary, 100 μL of host C2C12 cells (ATCC) were seeded in clear bottom black 96-well plates at a density of 2.5 x 10^4 cells/mL (2.5 × 10^3 cells/well). […] The parasites were allowed to infect for a 24 hr period, after which compounds were added in a volume of 50 μL. […] After 72 hrs of compound incubation, the wells were fixed with 4% paraformaldehyde for 15 to 30 mins. The plates were then washed once with deionized water and stained with a solution of DAPI (3 μM) for 1 hour. Plates were imaged in an INCell 2000 (GE Healthcare) high-content analyser by taking 16 pictures per well at 20 X objective amplification. Images were analysed with INCell Developer software (GE Healthcare) using the segmentation of host cell nuclei and parasite kinetoplast DNA. The measurement output used was the average number of parasites per cell calculated by the ratio of host cell nuclei/parasite kinetoplast DNA.

Series [5] deals with T. cruzi amastigotes. The series is described as follows: High-content screening assay on intracellular T. cruzi amastigotes. Particulars: Trypanosoma cruzi, C2C12, 72 h, Y strain in C2C12 host cells, 72 h; read-out: Anti-T. cruzi Activity Amastigotes (EC50 ± SD). In kind it is cell-based, Trypanosoma cruzi. On the procedure: For the evaluation of the activity against T. cruzi amastigotes, high-content screening (HCS) was designed. In summary, 100 μL of host C2C12 cells (ATCC) were seeded in clear bottom black 96-well plates at a density of 2.5 x 10^4 cells/mL (2.5 × 10^3 cells/well). After 24 hrs, 50 μL of Y strain tissue culture-derived trypomastigotes were used to infect the host cells at a density of 7.5 x 10^5/mL (3.75 x 10^4 parasites/well). The parasites were allowed to infect for a 24 hr period, after which compounds were added in a volume of 50 μL. […] After 72 hrs of compound incubation, the wells were fixed with 4% paraformaldehyde for 15 to 30 mins. The plates were then washed once with deionized water and stained with a solution of DAPI (3 μM) for 1 hour. Plates were imaged in an INCell 2000 (GE Healthcare) high-content analyser by taking 16 pictures per well at 20 X objective amplification. Images were analysed with INCell Developer software (GE Healthcare) using the segmentation of host cell nuclei and parasite kinetoplast DNA. The measurement output used was the average number of parasites per cell calculated by the ratio of host cell nuclei/parasite kinetoplast DNA.
In this assay, the compounds are incubated for 72 hours with cells previously infected with wild-type trypomastigotes for 24 hours. The readout was done by comparing the average number of amastigotes per cell that developed by the end of the incubation period. The quality of the assay was statistically evaluated by the calculation of the z-factor [75], that represents the reliability of the assay in distinguishing positive controls confidently from negative controls. Varying from 0 to 1, z-factor values higher than 0.5 are considered acceptable for drug screening. The z-factor obtained was 0.68, validating the use of the assay (S3B Fig).

A short description of series [6]: C2C12 host cell cytotoxicity (cell ratio) in HCS assay. The format is cell-based, Mouse. The conditions noted are these: mouse, cell ratio, 72 h; read-out: C2C12 Cytotoxicity (CC50 ± SD). Here is the method: as §1
Series [7] can be described thus: Solubility. The format is physicochemical. Particulars: limits the concentration tested.
In series [8] the test system is T. cruzi Y strain (Luc+). The experiment in a line: Mouse model of T. cruzi infection, bioluminescence imaging. In kind it is in vivo, BALB/c mice. The conditions noted are these: 100 mg/kg/day per os, 4 days. Here is the method:
To evaluate BNIPSpd (9) efficacy in vivo, five- to six-week-old female BALB/c mice (Charles River) and infected with T. cruzi trypomastigotes expressing luciferase. Parasites were collected from the supernatants of a monolayer of Vero infected cells, washed and suspended in PBS-glucose 0.2%, and injected intraperitoneally (1 x 10^4 per mouse). After 7 days of infection, mice were treated with drugs for 4 consecutive days orally with (benznidazole in 20% Kolliphor HS 15) or intravenously with (BNIPSpd (9) in 10% DMSO) at a dose of 100 or 5 mg/kg/day, respectively. Infection and treatment efficiency were evaluated following subcutaneous injection of 2.1 mg of luciferin and through live imaging using an IVIS Lumina LT (Perkin Elmer). Images of the animals were analysed using the Living Image software (Perkin Elmer).
Supplementary file pntd.0006180.s006.tif: S5 Fig In vivo efficacy testing of BNIPSpd (9). A) Mice were infected with 10^4 Luc^+ trypomastigotes by intraperitoneal injection. […] In the lower panel, bioluminescence signal of whole mice represented in average radiance (photons/sec/cm^2/sr) quantified before and after treatment. […] B) Snapshot Pharmacokinetics of BNIPSpd (9) in BALB/c mice by quantification of BNIPSpd (9) in the blood of mice by UHPLC-MS/MS ESI+ at different time-points after administration of a 5 mg/kg dose by intravenous injection. […]

Chain of TcSir2rp1 (Q4DVL9 entry or part of it): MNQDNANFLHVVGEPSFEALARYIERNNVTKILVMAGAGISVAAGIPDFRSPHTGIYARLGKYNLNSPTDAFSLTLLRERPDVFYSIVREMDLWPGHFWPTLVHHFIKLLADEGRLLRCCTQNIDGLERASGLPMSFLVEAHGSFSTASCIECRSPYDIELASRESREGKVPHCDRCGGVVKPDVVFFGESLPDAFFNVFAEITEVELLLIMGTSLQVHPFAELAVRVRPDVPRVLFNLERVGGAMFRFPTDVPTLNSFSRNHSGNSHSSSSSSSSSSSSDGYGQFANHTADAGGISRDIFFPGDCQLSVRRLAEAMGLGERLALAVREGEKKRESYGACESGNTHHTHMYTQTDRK

On to `O=C1c2cccc3cccc(c23)C(=O)N1CCCNCCCCCNCCCN1C(=O)c2cccc3cccc(c23)C1=O` [Compound 2], for which the inhibition (in general, the share of the control response that was lost under treatment) at 50 µM in series [1] (50 μM) was 55 ± 4%. In addition, in series [1], the “Inhibition of NAD+-dependent deacetylase activity of TcSir2rp1” value is given as “statistically significant inhibition” and the inhibition at 10 µM came out at 42 ± 13%. The “EC50 against T. cruzi epimastigotes WT” value in series [2] is “just as potent as nifurtimox”. Further, in series [3], the EC50 (as a rule, the concentration at which the effect is half-maximal) amounted to 7940 ± 780 nM. The “Host cell toxicity in primary screening” value in series [4] (single dose 2.5 μM) is recorded as “high cytotoxicity”.

As to `O=C1c2cccc3cccc(c23)C(=O)N1CCCNCCCCCCCCCCNCCCN1C(=O)c2cccc3cccc(c23)C1=O` [Compound 7], the “EC50 against T. cruzi epimastigotes WT” value in series [2] is on record as “just as potent as nifurtimox”. Further, the EC50 in series [3] is 2970 ± 600 nM.

For `O=C1c2cccc3cccc(c23)C(=O)N1CCCNCCCCCCCCCNCCCN1C(=O)c2cccc3cccc(c23)C1=O` [Compound 6], the “EC50 against T. cruzi epimastigotes WT” value in series [2] was “moderate activity”. In addition, the EC50 in series [3] was determined as 113000 ± 8200 nM; in series [5] it was 1450 ± 370 nM. Also, in series [6], the CC50 (in general, the concentration giving 50% cytotoxicity) at 72 h amounted to 2350 ± 770 nM. Besides, the “Selectivity Index” value in series [4] amounted to 1.7.

Turning to `CC1CS(=O)(=O)CCN1/N=C/c1ccc([N+](=O)[O-])o1` (stereo not drawn) [Nifurtimox, nifurtimox, reference compound], the EC50 in series [3] was found to be 2240 ± 140 nM.

For `O=C1c2cccc3cccc(c23)C(=O)N1CCCNCCCCCCNCCCN1C(=O)c2cccc3cccc(c23)C1=O` [Compound 3], in series [1], the inhibition at 20 µM worked out at 34 ± 11%, the “Inhibition of NAD+-dependent deacetylase activity of TcSir2rp1” value is “statistically significant inhibition” and the inhibition at 10 µM came out at 31 ± 8%. Further, in series [2], the “EC50 against T. cruzi epimastigotes WT” value is on record as “moderate activity”. The EC50 in series [3] was found to be 102000 ± 9900 nM. In series [7], the “Solubility in assay (qualitative)” value was “low solubility; also recorded: poor solubility”.

For `O=C(Cn1ccnc1[N+](=O)[O-])NCc1ccccc1` [Benznidazole, benznidazole, reference compound], the EC50 in series [5] turned out to be 1230 ± 300 nM. The CC50 at 72 h in series [6] is greater than 100000 nM. Moreover, the “Selectivity Index” value in series [4] is recorded as greater than 81.0. In addition, in series [8], the “Reduction in the bioluminescence signal compared to vehicle” value is listed as 700 fold.
